According to patent publication US20180273579A1, “COMPOUNDS WITH HIV MATURATION INHIBITORY ACTIVITY” (priority 2015, published 2018):
Where a name gives a salt, the structure may show the parent alone.

Assays:
HIV-1 (strain IIIB) = assay: MT4 Cell Antiviral Assay (general statement, control); assay type: cell-based; details: Human immunodeficiency virus 1, IIIB, control and standard in every assay, propidium iodide readout, read-out: expected range of IC50 values
Method: Antiviral HIV activity and compound-induced cytotoxicity were measured in parallel by means of a propidium iodide based procedure in the human T-cell lymphotropic virus transformed cell line MT4. Aliquots of the test compounds were serially diluted in medium (RPMI 1640, 10% fetal calf serum (FCS), and gentamycin) in 96-well plates (Costar 3598) using a Cetus Pro/Pette. Exponentially growing MT4 cells were harvested and centrifuged at 1000 rpm for 10 min in a Jouan centrifuge (model CR 4 12). Cell pellets were resuspended in fresh medium (RPMI 1640, 20% FCS, 20% IL-2, and gentamycin) to a density of 5×10^5 cells/ml. […]
For propidium iodide readout, 27 μl of 5% Nonidet-40 was added to each well of the incubation plate. […] The plates were analyzed in an automated assay instrument (Screen Machine, Idexx Laboratories). […]
For MTS readout, 20 μl CellTiter 96 AQ One Solution reagent (Promega #G3582) was added to each well. At 75 minutes following the addition of MTS reagent, absobance was read at 492 nm using a Tecan Sunrise 96-well plate reader. […]
For each assay plate, the results (relative fluorescence units, rfU, or OD values) of wells containing uninfected cells or infected cells with no compound were averaged, respectively. […] Percent of cells remaining is determined by the following formula: […]

HIV = details: cited from earlier work
V370A = assay: MT4 Cell Antiviral Assay (V370A); assay type: cell-based, HIV-1; details: Human immunodeficiency virus 1, MT4, read-out: EC50 V370A (nM)
NL4-3 wt = assay: MT4 Cell Antiviral Assay (NL4-3 wt); assay type: cell-based, HIV-1; details: Human immunodeficiency virus 1, NL43, HIV MT4 Antiviral Cell Assay

IC50 (HIV-1 (strain IIIB)) [µM] | SMILES | reduced HIV viral load, mean (HIV; patients with trough levels >=20 μg/mL and without key baseline Gag polymorphisms at Q369, V370 or T371) [log10/mL] | viral load reduction (HIV; users with Gag polymorphisms at Q369, V370 or T371, versus patients without them) | EC50 (V370A) [nM] | EC50 (NL4-3 wt) [µM]
0.04 to 0.12 | Cc1cn([C@H]2C[C@H](N=[N+]=[N-])[C@@H](CO)O2)c(=O)[nH]c1=O [3′-azido-3′-deoxythymidine] | – | – | – | –
– | C=C(C)[C@@H]1CC[C@]2(C(=O)O)CC[C@]3(C)[C@H](CC[C@@H]4[C@@]5(C)CC[C@H](OC(=O)CC(C)(C)C(=O)O)C(C)(C)[C@@H]5CC[C@]43C)[C@@H]12 [Bevirimat] | 1.3 | significantly lower load reductions | – | –
– | CC(C)C1=C2[C@H]3CC[C@@H]4[C@@]5(C)CC=C(C6=CCC(C(=O)O)CC6)C(C)(C)[C@@H]5CC[C@@]4(C)[C@]3(C)CC[C@@]2(C(=O)NCCN2CCC(S(C)(=O)=O)CC2)CC1=O (stereo partly drawn) [Example 1, 4-((3aR,5aR,5bR,7aR,11aS,11bR,13aS)-1-Isopropyl-5a,5b,8,8,11a-pentamethyl-3a-((2-(4-(methylsulfonyl)piperidin-1-yl)ethyl)carbamoyl)-2-oxo-3,3a,4,5,5a,5b,6,7,7a,8,11,11a,11b,12,13,13a-hexadecahydro-2H-cyclopenta[a]chrysen-9-yl)cyclohex-3-enecarboxylic acid] | – | – | > 25000 | > 23.9
– | CC(C)C1=C2[C@H]3CC[C@@H]4[C@@]5(C)CC=C(C6=CCC(C(=O)O)CC6)C(C)(C)[C@@H]5CC[C@@]4(C)[C@]3(C)CC[C@@]2(C(=O)NCCN2CCS(=O)(=O)CC2)CC1=O (stereo partly drawn) [Example 2, 4-((3aR,5aR,5bR,7aR,11aS,11bR,13aS)-3a-((2-(1,1-Dioxidothiomorpholino)ethyl)carbamoyl)-1-isopropyl-5a,5b,8,8,11a-pentamethyl-2-oxo-3,3a,4,5,5a,5b,6,7,7a,8,11,11a,11b,12,13,13a-hexadecahydro-2H-cyclopenta[a]chrysen-9-yl)cyclohex-3-enecarboxylic acid] | – | – | > 25000 | 3.39
– | CC(C)C1=C2[C@H]3CC[C@@H]4[C@@]5(C)CC=C(C6=CCC(C(=O)O)CC6)C(C)(C)[C@@H]5CC[C@@]4(C)[C@]3(C)CC[C@@]2(C(=O)N(CCN(C)C)[C@H](C)c2ccc(Cl)cc2)CC1=O (stereo partly drawn) [Example 5, 4-((3aR,5aR,5bR,7aR,11aS,11bR,13aS)-3a-(((R)-1-(4-Chlorophenyl)ethyl) (2-(dimethylamino)ethyl)carbamoyl)-1-isopropyl-5a,5b,8,8,11a-pentamethyl-2-oxo-3,3a,4,5,5a,5b,6,7,7a,8,11,11a,11b,12,13,13a-hexadecahydro-2H-cyclopenta[a]chrysen-9-yl)cyclohex-3-enecarboxylic acid] | – | – | 9.5 | 0.0076
– | CC(C)C1=C2[C@H]3CC[C@@H]4[C@@]5(C)CC=C(C6=CCC(C(=O)O)CC6)C(C)(C)[C@@H]5CC[C@@]4(C)[C@]3(C)CC[C@@]2(C(=O)N(CCN(C)C)Cc2ccc(Cl)cc2)CC1=O (stereo partly drawn) [Example 6, 4-((3aR,5aR,5bR,7aR,11aS,11bR,13aS)-3a-((4-Chlorobenzyl) (2-(dimethylamino)ethyl)carbamoyl)-1-isopropyl-5a,5b,8,8,11a-pentamethyl-2-oxo-3,3a,4,5,5a,5b,6,7,7a,8,11,11a,11b,12,13,13a-hexadecahydro-2H-cyclopenta[a]chrysen-9-yl)cyclohex-3-enecarboxylic acid] | – | – | 14.1 | 0.0112
– | CC(C)C1=C2[C@H]3CC[C@@H]4[C@@]5(C)CC=C(c6ccc(C(=O)O)cc6)C(C)(C)[C@@H]5CC[C@@]4(C)[C@]3(C)CC[C@@]2(C(=O)N(CCN(C)C)[C@H](C)c2ccc(Cl)cc2)CC1=O [Example 7, 4-((3aR,5aR,5bR,7aR,11aS,11bR,13aS)-3a-(((R)-1-(4-Chlorophenyl)ethyl) (2-(dimethylamino)ethyl)carbamoyl)-1-isopropyl-5a,5b,8,8,11a-pentamethyl-2-oxo-3,3a,4,5,5a,5b,6,7,7a,8,11,11a,11b,12,13,13a-hexadecahydro-2H-cyclopenta[a]chrysen-9-yl)benzoic acid hydrochloride] | – | – | 8.9 | 0.0085
– | CC(C)C1=C2[C@H]3CC[C@@H]4[C@@]5(C)CC=C(c6ccc(C(=O)O)cc6)C(C)(C)[C@@H]5CC[C@@]4(C)[C@]3(C)CC[C@@]2(C(=O)N(CCN(C)C)Cc2ccc(Cl)cc2)CC1=O [Example 8, 4-((3aR,5aR,5bR,7aR,11aS,11bR,13aS)-3a-((4-Chlorobenzyl) (2-(dimethylamino)ethyl)carbamoyl)-1-isopropyl-5a,5b,8,8,11a-pentamethyl-2-oxo-3,3a,4,5,5a,5b,6,7,7a,8,11,11a,11b,12,13,13a-hexadecahydro-2H-cyclopenta[a]chrysen-9-yl)benzoic acid hydrochloride] | – | – | 64.6 | 0.0288
